{"source": "ChEMBL document CHEMBL5620353", "about": "“Novel antifungal triazoles with alkynyl-methoxyl side chains: Design, synthesis, and biological activity evaluation” (Eur J Med Chem, 2023)", "key": {"Saccharomyces cerevisiae [1]": {"test_system": "Saccharomyces cerevisiae", "test": "Antifungal activity against recombinant Saccharomyces cerevisiae Y525 overexpressing CaMdr1 assessed as inhibition of fungal growth incubated for 48 hrs by microbroth dilution method", "assay_type": "functional"}, "Saccharomyces cerevisiae [2]": {"test_system": "Saccharomyces cerevisiae", "test": "Antifungal activity against recombinant Saccharomyces cerevisiae Y570 overexpressing CaCdr1 assessed as inhibition of fungal growth incubated for 48 hrs by microbroth dilution method", "assay_type": "functional"}, "Saccharomyces cerevisiae [3]": {"test_system": "Saccharomyces cerevisiae", "test": "Antifungal activity against recombinant Saccharomyces cerevisiae Y2411 overexpressing ScErg11 assessed as inhibition of fungal growth incubated for 48 hrs by microbroth dilution method", "assay_type": "functional"}, "Saccharomyces cerevisiae [4]": {"test_system": "Saccharomyces cerevisiae", "test": "Antifungal activity against recombinant Saccharomyces cerevisiae Y2300 overexpressing ScErg11 assessed as inhibition of fungal growth incubated for 48 hrs by microbroth dilution method", "assay_type": "functional"}, "Saccharomyces cerevisiae [5]": {"test_system": "Saccharomyces cerevisiae", "test": "Antifungal activity against recombinant Saccharomyces cerevisiae Y2301 overexpressing ScErg11 Y140F assessed as inhibition of fungal growth incubated for 48 hrs by microbroth dilution method", "assay_type": "functional"}, "Saccharomyces cerevisiae [6]": {"test_system": "Saccharomyces cerevisiae", "test": "Antifungal activity against recombinant Saccharomyces cerevisiae Y2513 overexpressing ScErg11 Y140H assessed as inhibition of fungal growth incubated for 48 hrs by microbroth dilution method", "assay_type": "functional"}, "Saccharomyces cerevisiae [7]": {"test_system": "Saccharomyces cerevisiae", "test": "Antifungal activity against recombinant Saccharomyces cerevisiae Y2374 overexpressing CgErg11 assessed as inhibition of fungal growth incubated for 48 hrs by microbroth dilution method", "assay_type": "functional"}, "Saccharomyces cerevisiae [8]": {"test_system": "Saccharomyces cerevisiae", "test": "Antifungal activity against recombinant Saccharomyces cerevisiae Y2462 overexpressing ScErg11 ScNcp1 assessed as inhibition of fungal growth incubated for 48 hrs by microbroth dilution method", "assay_type": "functional"}, "Saccharomyces cerevisiae [9]": {"test_system": "Saccharomyces cerevisiae", "test": "Antifungal activity against recombinant Saccharomyces cerevisiae Y2459 overexpressing CaErg11 CaCpr assessed as inhibition of fungal growth incubated for 48 hrs by microbroth dilution method", "assay_type": "functional"}, "Saccharomyces cerevisiae [10]": {"test_system": "Saccharomyces cerevisiae", "test": "Antifungal activity against recombinant Saccharomyces cerevisiae Y2721 overexpressing CpErg11 CpCpr assessed as inhibition of fungal growth incubated for 48 hrs by microbroth dilution method", "assay_type": "functional"}, "Saccharomyces cerevisiae [11]": {"test_system": "Saccharomyces cerevisiae", "test": "Antifungal activity against recombinant Saccharomyces cerevisiae Y2716 overexpressing CpErg11 Y132F CpCpr assessed as inhibition of fungal growth incubated for 48 hrs by microbroth dilution method", "assay_type": "functional"}, "Candida albicans [12]": {"test_system": "Candida albicans", "test": "Antifungal activity against Candida albicans SC5314 assessed as inhibition of fungal growth incubated for 48 hrs by microbroth dilution method", "assay_type": "functional"}, "Candida albicans [13]": {"test_system": "Candida albicans", "test": "Antifungal activity against Candida albicans 10231 assessed as inhibition of fungal growth incubated for 48 hrs by microbroth dilution method", "assay_type": "functional"}, "Nakaseomyces glabratus": {"test_system": "Nakaseomyces glabratus", "test": "Antifungal activity against Candida glabrata 537 assessed as inhibition of fungal growth incubated for 48 hrs by microbroth dilution method", "assay_type": "functional"}, "Candida parapsilosis": {"test_system": "Candida parapsilosis", "test": "Antifungal activity against Candida parapsilosis 22019 assessed as inhibition of fungal growth incubated for 48 hrs by microbroth dilution method", "assay_type": "functional", "settings": "Lodderomyces parapsilosis"}, "Pichia kudriavzevii": {"test_system": "Pichia kudriavzevii", "test": "Antifungal activity against Candida krusei 4996 assessed as inhibition of fungal growth incubated for 48 hrs by microbroth dilution method", "assay_type": "functional"}, "Candida tropicalis": {"test_system": "Candida tropicalis", "test": "Antifungal activity against Candida tropicalis 8915 assessed as inhibition of fungal growth incubated for 48 hrs by microbroth dilution method", "assay_type": "functional"}, "Cryptococcus neoformans": {"test_system": "Cryptococcus neoformans", "test": "Antifungal activity against Cryptococcus neoformans 32,609 assessed as inhibition of fungal growth incubated for 72 hrs by microbroth dilution method", "assay_type": "functional"}, "Aspergillus fumigatus": {"test_system": "Aspergillus fumigatus", "test": "Antifungal activity against Aspergillus fumigatus 7544 assessed as inhibition of fungal growth incubated for 72 hrs by microbroth dilution method", "assay_type": "functional"}, "Candida albicans [14]": {"test_system": "Candida albicans", "test": "Antifungal activity against fluconazole-resistant Candida albicans 901 assessed as inhibition of fungal growth incubated for 48 hrs by microbroth dilution method", "assay_type": "functional"}, "Candida albicans [15]": {"test_system": "Candida albicans", "test": "Antifungal activity against fluconazole-resistant Candida albicans 904 assessed as inhibition of fungal growth incubated for 48 hrs by microbroth dilution method", "assay_type": "functional"}, "[Candida] auris [16]": {"test_system": "[Candida] auris", "test": "Antifungal activity against fluconazole-resistant Candida auris 891 assessed as inhibition of fungal growth incubated for 48 hrs by microbroth dilution method", "assay_type": "functional", "settings": "Candidozyma auris"}, "[Candida] auris [17]": {"test_system": "[Candida] auris", "test": "Antifungal activity against fluconazole-resistant Candida auris 918 assessed as inhibition of fungal growth incubated for 48 hrs by microbroth dilution method", "assay_type": "functional", "settings": "Candidozyma auris"}, "[Candida] auris [18]": {"test_system": "[Candida] auris", "test": "Antifungal activity against fluconazole-resistant Candida auris 919 assessed as inhibition of fungal growth incubated for 48 hrs by microbroth dilution method", "assay_type": "functional", "settings": "Candidozyma auris"}, "[19]": {"test": "Metabolic stability in human liver microsomes assessed as half life at 1 uM preincubated for 10 mins followed by NADPH addition and measured upto 60 mins by LC-MS/MS analysis", "assay_type": "ADME, Microsome", "settings": "time < 70 min"}, "[20]": {"test": "Metabolic stability in human liver microsomes assessed as intrinsic clearance at 1 uM preincubated for 10 mins followed by NADPH addition and measured upto 60 mins by LC-MS/MS analysis", "assay_type": "ADME, Microsome", "settings": "time < 70 min, read-out: CLH"}}, "data": [{"smiles": "CC[C@@H]([C@H](C)O)n1ncn(-c2ccc(N3CCN(c4ccc(OC[C@@H]5CO[C@@](Cn6cncn6)(c6ccc(F)cc6F)C5)cc4)CC3)cc2)c1=O", "note": "[POSACONAZOLE]", "values": [{"measurement": "MIC", "setting": "Saccharomyces cerevisiae [1]", "value": 1, "unit": "µg/mL"}, {"measurement": "MIC", "setting": "Saccharomyces cerevisiae [2]", "value": 16, "unit": "µg/mL"}, {"measurement": "MIC", "setting": "Saccharomyces cerevisiae [3]", "value": 0.5, "unit": "µg/mL"}, {"measurement": "MIC", "setting": "Saccharomyces cerevisiae [4]", "value": 2, "unit": "µg/mL"}, {"measurement": "MIC", "setting": "Saccharomyces cerevisiae [5]", "value": 2, "unit": "µg/mL"}, {"measurement": "MIC", "setting": "Saccharomyces cerevisiae [6]", "value": 1, "unit": "µg/mL"}, {"measurement": "MIC", "setting": "Saccharomyces cerevisiae [7]", "value": 1, "unit": "µg/mL"}, {"measurement": "MIC", "setting": "Saccharomyces cerevisiae [8]", "value": 2, "unit": "µg/mL"}, {"measurement": "MIC", "setting": "Saccharomyces cerevisiae [9]", "value": 2, "unit": "µg/mL"}, {"measurement": "MIC", "setting": "Saccharomyces cerevisiae [10]", "value": 1, "unit": "µg/mL"}, {"measurement": "MIC", "setting": "Saccharomyces cerevisiae [11]", "value": 1, "unit": "µg/mL"}]}, {"smiles": "C[C@@H](c1nc(-c2ccc(C#N)cc2)cs1)[C@](O)(Cn1cncn1)c1ccc(F)cc1F", "note": "[RAVUCONAZOLE]", "values": [{"measurement": "MIC", "setting": "Candida albicans [12]", "value": 0.25, "unit": "µg/mL"}, {"measurement": "MIC", "setting": "Candida albicans [13]", "value": 16, "unit": "µg/mL"}, {"measurement": "MIC", "setting": "Nakaseomyces glabratus", "value": "≤ 0.125", "unit": "µg/mL"}, {"measurement": "MIC", "setting": "Candida parapsilosis", "value": "≤ 0.125", "unit": "µg/mL"}, {"measurement": "MIC", "setting": "Pichia kudriavzevii", "value": "≤ 0.125", "unit": "µg/mL"}, {"measurement": "MIC", "setting": "Candida tropicalis", "value": 4, "unit": "µg/mL"}, {"measurement": "MIC", "setting": "Cryptococcus neoformans", "value": "≤ 0.125", "unit": "µg/mL"}, {"measurement": "MIC", "setting": "Aspergillus fumigatus", "value": 0.25, "unit": "µg/mL"}, {"measurement": "MIC", "setting": "Candida albicans [14]", "value": 16, "unit": "µg/mL"}, {"measurement": "MIC", "setting": "Candida albicans [15]", "value": 16, "unit": "µg/mL"}, {"measurement": "MIC", "setting": "[Candida] auris [16]", "value": 1, "unit": "µg/mL"}, {"measurement": "MIC", "setting": "[Candida] auris [17]", "value": 1, "unit": "µg/mL"}, {"measurement": "MIC", "setting": "[Candida] auris [18]", "value": 1, "unit": "µg/mL"}, {"measurement": "MIC", "setting": "Saccharomyces cerevisiae [1]", "value": 0.125, "unit": "µg/mL"}, {"measurement": "MIC", "setting": "Saccharomyces cerevisiae [2]", "value": 32, "unit": "µg/mL"}, {"measurement": "MIC", "setting": "Saccharomyces cerevisiae [3]", "value": 0.008, "unit": "µg/mL"}, {"measurement": "MIC", "setting": "Saccharomyces cerevisiae [4]", "value": 0.063, "unit": "µg/mL"}, {"measurement": "MIC", "setting": "Saccharomyces cerevisiae [5]", "value": 0.063, "unit": "µg/mL"}, {"measurement": "MIC", "setting": "Saccharomyces cerevisiae [6]", "value": 0.016, "unit": "µg/mL"}, {"measurement": "MIC", "setting": "Saccharomyces cerevisiae [7]", "value": 0.063, "unit": "µg/mL"}, {"measurement": "MIC", "setting": "Saccharomyces cerevisiae [8]", "value": 0.063, "unit": "µg/mL"}, {"measurement": "MIC", "setting": "Saccharomyces cerevisiae [9]", "value": 0.016, "unit": "µg/mL"}, {"measurement": "MIC", "setting": "Saccharomyces cerevisiae [10]", "value": 0.031, "unit": "µg/mL"}, {"measurement": "MIC", "setting": "Saccharomyces cerevisiae [11]", "value": 0.031, "unit": "µg/mL"}]}, {"smiles": "Cc1ncc2n1-c1ccc(Cl)cc1C(c1ccccc1F)=NC2", "note": "[MIDAZOLAM]", "values": [{"measurement": "half-life at 1 µM", "setting": "[19]", "value": 4.67, "unit": "min"}, {"measurement": "microsomal CLint at 1 µM", "setting": "[20]", "value": 297, "unit": "µL/min/mg"}]}]}
